Results reported in ChEMBL document CHEMBL1255467, “Comparative in vitro antimicrobial activities of torezolid (TR-700), the active moiety of a new oxazolidinone, torezolid phosphate (TR-701), determination of tentative disk diffusion interpretive criteria, and quality control ranges” (2010).

Key:
Staphylococcus aureus [1] = test: Antimicrobial activity against methicillin-resistant Staphylococcus aureus by broth dilution method; assay type: functional
Haemophilus influenzae [2] = test: Antimicrobial activity against beta-lactamase negative Haemophilus influenzae by broth dilution method; assay type: functional
Streptococcus viridans = test: Antimicrobial activity against Streptococcus viridans by broth dilution method; assay type: functional
Moraxella catarrhalis = test: Antimicrobial activity against Moraxella catarrhalis by broth dilution method; assay type: functional
Listeria monocytogenes = test: Antimicrobial activity against Listeria monocytogenes by broth dilution method; assay type: functional
Staphylococcus aureus [3] = test: Antimicrobial activity against Staphylococcus aureus by broth dilution method; assay type: functional
Staphylococcus aureus [4] = test: Antimicrobial activity against linezolid-resistant Staphylococcus aureus by broth dilution method; assay type: functional
Haemophilus influenzae [5] = test: Antimicrobial activity against Haemophilus influenzae by broth dilution method; assay type: functional
Corynebacterium jeikeium = test: Antimicrobial activity against Corynebacterium jeikeium by broth dilution method; assay type: functional
Enterococcus faecium [6] = test: Antimicrobial activity against vancomycin-resistant Enterococcus faecium by broth dilution method; assay type: functional
Staphylococcus sp. [7] = test: Antimicrobial activity against methicillin-resistant coagulase-negative Staphylococcus by broth dilution method; assay type: functional
Streptococcus pneumoniae [8] = test: Antimicrobial activity against Streptococcus pneumoniae by broth dilution method; assay type: functional
Staphylococcus aureus [9] = test: Antimicrobial activity against methicillin-susceptible Staphylococcus aureus by broth dilution method; assay type: functional
Haemophilus influenzae [10] = test: Antimicrobial activity against ampicillin-nonsusceptible beta-lactamase negative Haemophilus influenzae by broth dilution method; assay type: functional
Enterococcus faecalis [11] = test: Antimicrobial activity against vancomycin-susceptible Enterococcus faecalis by broth dilution method; assay type: functional
Staphylococcus sp. [12] = test: Antimicrobial activity against methicillin-susceptible coagulase-negative Staphylococcus by broth dilution method; assay type: functional
Enterococcus faecalis [13] = test: Antimicrobial activity against vancomycin-resistant Enterococcus faecalis by broth dilution method; assay type: functional
Enterococcus sp. = test: Antimicrobial activity against Enterococcus by broth dilution method; assay type: functional
Streptococcus pneumoniae [14] = test: Antimicrobial activity against penicillin-intermediate Streptococcus pneumoniae by broth dilution method; assay type: functional
Staphylococcus sp. [15] = test: Antimicrobial activity against Staphylococcus sp. by broth dilution method; assay type: functional
Staphylococcus aureus [16] = test: Antimicrobial activity against vancomycin-nonsusceptible Staphylococcus aureus by broth dilution method; assay type: functional
Haemophilus influenzae [17] = test: Antimicrobial activity against beta-lactamase positive Haemophilus influenzae by broth dilution method; assay type: functional
Enterococcus faecium [18] = test: Antimicrobial activity against vancomycin-susceptible Enterococcus faecium by broth dilution method; assay type: functional
Streptococcus pneumoniae [19] = test: Antimicrobial activity against penicillin-resistant Streptococcus pneumoniae by broth dilution method; assay type: functional
Streptococcus pneumoniae [20] = test: Antimicrobial activity against penicillin-susceptible Streptococcus pneumoniae by broth dilution method; assay type: functional
Streptococcus sp = test: Antimicrobial activity against streptococcal sp. by broth dilution method

Cn1nnc(-c2ccc(-c3ccc(N4C[C@H](CO)OC4=O)cc3F)cn2)n1 [TEDIZOLID]
32 µg/mL: MBC90 (Staphylococcus aureus [9]) | MBC50 (Enterococcus faecalis [11]) | MBC90 (Enterococcus faecalis [11]) | MBC90 (Staphylococcus sp. [12]) | MBC50 (Enterococcus sp.) | MBC90 (Enterococcus sp.) | MBC90 (Staphylococcus sp. [15]) | MIC90 (Haemophilus influenzae [17]; Haemophilus influenzae, read-out: MIC90) | MBC50 (Enterococcus faecium [18]) | MBC90 (Enterococcus faecium [18])
2 µg/mL: MBC50 (Staphylococcus aureus [1]) | MBC90 (Streptococcus pneumoniae [8])
0.25 µg/mL: MIC50 (Streptococcus viridans) | MIC90 (Streptococcus viridans) | MIC (Listeria monocytogenes) | MIC50 (Listeria monocytogenes) | MIC90 (Listeria monocytogenes) | MIC (Corynebacterium jeikeium) | MIC50 (Corynebacterium jeikeium) | MIC50 (Staphylococcus sp. [7]) | MIC50 (Streptococcus pneumoniae [8]; Streptococcus pneumoniae) | MIC90 (Streptococcus pneumoniae [8]; Streptococcus pneumoniae) | MIC (Staphylococcus aureus [9]; Staphylococcus aureus) | MIC50 (Staphylococcus aureus [9]; Staphylococcus aureus) | MIC50 (Staphylococcus sp. [12]; Staphylococcus sp.) | MIC50 (Streptococcus pneumoniae [14]; Streptococcus pneumoniae) | MIC50 (Staphylococcus sp. [15]; Staphylococcus sp.) | MIC50 (Staphylococcus aureus [16]; Staphylococcus aureus) | MIC50 (Streptococcus pneumoniae [19]) | MIC90 (Streptococcus pneumoniae [19]) | MIC50 (Streptococcus pneumoniae [20]; Streptococcus pneumoniae) | MIC90 (Streptococcus pneumoniae [20]; Streptococcus pneumoniae) | MIC50 (Streptococcus sp; Streptococcus sp.) | MIC90 (Streptococcus sp; Streptococcus sp.)
4 µg/mL: MIC50 (Moraxella catarrhalis) | MIC90 (Moraxella catarrhalis) | MBC50 (Staphylococcus aureus [3]) | MIC50 (Staphylococcus aureus [4]) | MBC90 (Streptococcus pneumoniae [20])
> 2 µg/mL: MBC (Staphylococcus sp. [12]; Staphylococcus sp.)
> 0.5 µg/mL: MBC (Staphylococcus aureus [3]; Staphylococcus aureus) | MBC (Staphylococcus sp. [15]; Staphylococcus sp.)
> 32 µg/mL: MBC (Haemophilus influenzae [17]; Haemophilus influenzae)
> 1 µg/mL: MBC (Enterococcus sp.; Enterococcus sp.)
1 µg/mL: MIC90 (Staphylococcus aureus [1]; Staphylococcus aureus) | MBC (Enterococcus faecium [6]) | MBC50 (Streptococcus pneumoniae [8]) | MBC (Staphylococcus aureus [9]; Staphylococcus aureus) | MBC50 (Streptococcus pneumoniae [14]) | MBC90 (Streptococcus pneumoniae [14]) | MBC90 (Staphylococcus aureus [16]) | MIC90 (Staphylococcus aureus [16]; Staphylococcus aureus) | MBC (Streptococcus pneumoniae [19]) | MBC50 (Streptococcus pneumoniae [20]) | MBC50 (Streptococcus sp)
> 16 µg/mL: MBC (Haemophilus influenzae [2]; Haemophilus influenzae) | MBC (Staphylococcus aureus [4]) | MBC (Enterococcus faecalis [13])
>32 µg/mL: MBC50 (Haemophilus influenzae [2]) | MBC90 (Haemophilus influenzae [2]) | MBC50 (Haemophilus influenzae [5]) | MBC90 (Haemophilus influenzae [5]) | MBC50 (Haemophilus influenzae [10]) | MBC90 (Haemophilus influenzae [10]) | MBC50 (Haemophilus influenzae [17]) | MIC90 (Haemophilus influenzae [17])
0.5 µg/mL: MIC50 (Staphylococcus aureus [1]; Staphylococcus aureus) | MIC50 (Staphylococcus aureus [3]; Staphylococcus aureus) | MIC90 (Staphylococcus aureus [3]; Staphylococcus aureus) | MIC90 (Corynebacterium jeikeium) | MIC50 (Enterococcus faecium [6]) | MIC90 (Enterococcus faecium [6]) | MIC90 (Staphylococcus sp. [7]) | MBC (Streptococcus pneumoniae [8]; Streptococcus pneumoniae) | MIC90 (Staphylococcus aureus [9]; Staphylococcus aureus) | MIC50 (Enterococcus faecalis [11]; Enterococcus faecalis) | MIC90 (Enterococcus faecalis [11]; Enterococcus faecalis) | MIC90 (Staphylococcus sp. [12]; Staphylococcus sp.) | MIC50 (Enterococcus faecalis [13]) | MIC90 (Enterococcus faecalis [13]) | MIC50 (Enterococcus sp.; Enterococcus sp.) | MIC90 (Enterococcus sp.; Enterococcus sp.) | MBC (Streptococcus pneumoniae [14]; Streptococcus pneumoniae) | MIC90 (Streptococcus pneumoniae [14]; Streptococcus pneumoniae) | MIC90 (Staphylococcus sp. [15]; Staphylococcus sp.) | MBC50 (Staphylococcus aureus [16]) | MBC (Staphylococcus aureus [16]; Staphylococcus aureus) | MIC50 (Enterococcus faecium [18]; Enterococcus faecium) | MIC90 (Enterococcus faecium [18]; Enterococcus faecium) | MBC (Streptococcus pneumoniae [20]; Streptococcus pneumoniae) | MBC (Streptococcus sp; Streptococcus sp.)
16 µg/mL: MIC90 (Haemophilus influenzae [2]; Haemophilus influenzae) | MBC90 (Staphylococcus aureus [3]) | MIC90 (Haemophilus influenzae [5]; Haemophilus influenzae) | MBC50 (Staphylococcus aureus [9]) | MIC90 (Haemophilus influenzae [10]; Haemophilus influenzae) | MBC (Enterococcus faecalis [11]; Enterococcus faecalis) | MBC50 (Staphylococcus sp. [12]) | MBC (Enterococcus faecium [18]; Enterococcus faecium) | MBC90 (Streptococcus sp)
8 µg/mL: MIC50 (Haemophilus influenzae [2]; Haemophilus influenzae) | MIC90 (Staphylococcus aureus [4]) | MIC50 (Haemophilus influenzae [5]; Haemophilus influenzae) | MIC50 (Haemophilus influenzae [10]; Haemophilus influenzae) | MBC50 (Staphylococcus sp. [15]) | MIC50 (Haemophilus influenzae [17]; Haemophilus influenzae)
> 8 µg/mL: MBC (Haemophilus influenzae [5]; Haemophilus influenzae) | MBC (Haemophilus influenzae [10]; Haemophilus influenzae)
